# Measurements: patent US6379659B1, “Keratin fiber strengthening agent and method for strengthening keratin fiber” (Takasago International Corporation, priority 1997, dated 2002)
# What was measured:
# [1] = Breaking strength test on solvent-damaged human hair (Example 31); conditions: damaged (chloroform/ethanol-treated) hair of person soaked in treating agent; 25° C., 40% RH; average n = 10
# Procedure: Hair samples 1 to 5 were prepared and subjected to a destructive test under the following conditions by the use of Shimadzu Autograph AGS-500B (manufactured by Shimadzu Corp.) to measure a breaking strength.
# Hair: A hair having a length of about 15 cm and a diameter of about 0.08 to 0.1 mm, clamped 5.7 cm from each end.
# (§1) Pulling speed: 5.0 cm/min
# (§2) Atmosphere: 25° C., 40% RH
# (§3) Healthy hair, cut off from a person at a beauty parlor, which had not been permed nor bleached, was used.
# The healthy hair (untreated hair, sample 1) weighing 50 g was soaked in 450 ml of a 2:1 (by volume) mixture of chloroform and ethanol and subjected to ultrasonication for 15 minutes to remove lipids. The sample was washed with 250 ml of a 2:1 (by volume) mixture of chloroform and ethanol and then with 100 ml of acetone and dried to prepare solvent-treated hair as damaged hair (sample 2).
# The solvent-treated hair weighing 40 g was soaked in a 5-fold weight of each of the blank treating agent of Comparative Example 1, the racemate-containing treating agent of Comparative Example 2, and the keratin fiber strengthening agent of Example 1 and subjected to ultrasonication for 15 minutes, followed by washing with five 1000 ml portions of water. The treated hair was dried under reduced pressure at 60° C. 2 hours and then under reduced pressure for 3 hours to prepare samples 3 to 5, respectively.
# [2] = Young's modulus, breaking strength, elongation and toughness of solvent-damaged human hair (Examples 33, 35); conditions: damaged hair of person soaked in treating agent; n=10
# Procedure: as §3
# Healthy hair (untreated hair, sample 6) was treated with a chloroform-ethanol mixed solvent in the same manner as in Example 31 to prepare sample 7. Samples 8 to 10 were prepared in the same manner as for samples 3 to 5 of Example 31. The breaking strength of each sample was measured by means of Shimadzu Autograph. A Young's modulus was also measured.
# [3] = Breaking strength test on dog hair (Example 36)
# Procedure: Dog hair samples 11 to 15 were prepared as follows and subjected to a destructive test under the following conditions by the use of Shimadzu Autograph AGS-SOOB (manufactured by Shimadzu Corp.) to measure a breaking strength and a Young's modulus. The breaking strength and Young's modulus data obtained are also graphically represented in FIGS. 4 and 5, respectively.
# Dog Hair: A dog hair having a length of about 10 to 15 cm and a diameter of about 0.08 to 0.1 mm, clamped 2 cm from each end.
# as §1, §2
# Healthy dog hairs collected from around the neck of a 4-year-old male Shetland sheepdog were used. The untreated hair as collected (sample 11) weighing 50 g was treated in the same manner as in Example 31 to prepare samples 12 to 15.
# [4] = Breaking strength test, elongation and toughness of solvent-damaged human hair (Example 38)
# Procedure: Samples (Samples 16 to 19) were prepared as described below and breaking strength test and measurement of elongation were carried out under the below-described measuring conditions by using Shimadzu Autograph AGS0599B (manufactured by Simadzu Corp). Based on the results, toughness (breaking strength×elongation) of each of Samples 16 to 19 was calculated.
# Relative humidity: 40%, temperature: 25° C.
# Hair employed for the test: A hair having a length of about 15 cm and a diameter of about 0.08 to 0.1 mm, clamped 5.0 cm from each end.
# as §1
# (b) Preparation of Samples (Samples 16 to 19)
# as §3
# The healthy hair (untreated hair, Sample 16) weighing 50 g was soaked in 450 ml of a 2:1 mixture of chloroform and ethanol and subjected to ultrasonication for 15 minutes to remove lipid components. The sample was then washed with 250 ml of a 2:1 mixture of chloroform and ethanol and then with 100 ml of acetone, followed by drying under reduced pressure, whereby organic-solvent-treated hair (Sample 17) was obtained.
# The solvent-treated hair (Sample 17) weighing 40 g was soaked in a 5-fold weight of each of the treating agents and subjected to ultrasonication for 15 minutes. The hair was then washed five times with 1000 ml of water, followed by drying at 60° C. for 2 hours under reduced pressure and then drying for 3 hours under reduced pressure, whereby each of Samples 18 to 19 were obtained. Described specifically, Sample 18 was the hair treated with the treating agent (placebo treating agent), which had been prepared in Comparative Example 3, subsequent to the treatment with a solvent, while Sample 19 was the hair treated with the keratin fiber strengthening agent of the present invention (Compound-6-containing treating agent) which had been prepared in […].
# The differences of the samples are summarized as follows.
# Sample 16: Healthy hair (untreated)
# Sample 17: Hair treated with the solvent
# Sample 18: Hair treated with the solvent and then with the placebo treating agent prepared in Comparative Example
# Sample 19: Hair treated with the solvent and then with the keratin fiber strengthening agent of the present invention (Compound-6-containing treating agent) prepared in Example 31
# [5] = damaged dog hair soaked in treating agent, n = 10
# [6] = solvent-treated hair of person soaked in treating agent, mean n=10
Compound,Breaking Strength [1] [kgf],Breaking Strength [2] [kgf],Elongation [2] [mm],Toughness (product of breaking strength and elongation) [2] [kgf × mm],Breaking Strength per area ([3]; damaged dog hair soaked in treating agent) [kgf/mm^2],"Breaking Strength [3, 5] [kgf]","Young's Modulus [3, 5] [kgf/mm^2]","Improvements on breaking strength and Young's modulus, in words ([3]; not only human hair but dog hair)","Breaking strength of hair as compared with the placebo treating agent, in words ([4]; P<0.05 vs Sample 18)","Breaking Strength [4, 6] [Kgf]","Elongation [4, 6] [mm]","Toughness (breaking strength×elongation) [4, 6] [kgf·mm]"
"CCCCCCCCCCCCCCCCCC(=O)N[C@@H](CO)[C@H](O)CCCCCCCCCCCCCCC [Compound 1, (2S,3R)-2-octadecanoylaminooctadecane-1,3-diol]",0.2058,0.2941,27.08,7.9642,42.55,0.1196,605.240,significant improvements,–,–,–,–
"CCCCCCCCCCCCCCC[C@@H](O)[C@H](CO)NC(=O)C(O)CCCCCCCCCCCCCC (stereo partly drawn) [Compound 6, (2S,3R)-2-(2-hydroxyhexadecanoyl)aminooctadecane-1,3-diol]",–,–,–,–,–,–,–,–,significantly increases,0.266,26.02,6.921
